Measurements as given in PMC2849849 (Neuropharmacology, 2010).
Several values for one entry are separate records, joined by “and”; a condition that tells them apart may be missing. Equal values may be shown once. Entries after “also recorded” stand apart in the source; their conditions may differ. Where a name gives a salt, the structure may show the parent alone. Read-outs that look alike come from different tables or passages of the source.

Experiments:
α3β4*-nAChR = α3β4*-nAChR (Mus musculus, UniProt Q8R493+Q8R4G9); experiment: [3H]-ACh release from IPN synaptosomes; assay type: biochemical; conditions: for Functional character at α3β4*: [3H]-ACh release from IPN synaptosomes
α4L9'A knock-in mice [1] = experiment: Hypothermia in α4L9'A knock-in mice; assay type: in vivo, mouse; conditions: for Physiological effect α4L9'Aβ2*: ip
α4β2*-nAChR [2] = biological target: T1, α4β2*-nAChR (Mus musculus, UniProt O70174+Q9ERK7); experiment: α-CtxMII-resistant [3H]-dopamine release from striatal synaptosomes; assay type: biochemical
α6β2*-nAChR [3] = biological target: T2, α6β2*-nAChR (Mus musculus, UniProt Q9ERK7+Q9R0W9); experiment: α-CtxMII-sensitive [3H]-dopamine release from striatal synaptosomes; assay type: biochemical
hα7-nAChR = hα7-nAChR (Homo sapiens, UniProt P36544); experiment: cell-based; assay type: cell-based; conditions: for EC50: read-out: EC50 α7; for Emax: GH4-C1, read-out: Efficacy α7
α6L9'S transgenic mice [4] = experiment: Locomotor activity in α6L9'S transgenic mice; assay type: in vivo, mouse; conditions: for Physiological effect α6L9'Sβ2*: locomotor, ip, dose in parentheses mg/kg
α6L9'S transgenic mice [5] = conditions: ref Drenan et al, 2008, cited from earlier work; for Physiological effect α6L9'Sβ2*: locomotor, ip, dose in parentheses mg/kg
α7-nAChR = α7-nAChR (Mus musculus, UniProt P49582); experiment: biochemical; assay type: binding
α6L9'S mice = conditions: 0.1 mg/kg; unpublished data
α4L9'A knock-in mice [6] = conditions: ref Tapper et al, 2007, cited from earlier work; for Physiological effect α4L9'Aβ2*: ip, dose in parentheses mg/kg
α4β2*-nAChR [7] = biological target: T1, α4β2*-nAChR; conditions: ref Salminen et al, 2004; cited from earlier work
α6β2*-nAChR [8] = biological target: T2, α6β2*-nAChR; conditions: ref Salminen et al, 2004; cited from earlier work
[9] = read-out: Ki α4β2* (1st number, [3H]DA release assay, marked #)
[10] = dose in parentheses mg/kg, block = block of low dose nicotine
[11] = EC50 α4β2* (1st number, [3H]DA release assay), activation, curve fit
[12] = EC50 α6β2*, activation, α-CtxMII-sensitive DA release
[13] = EC50 α3β4*, activation, [3H]ACh release
[14] = Ki α4β2* (1st number, [3H]DA release assay, marked #)

T1 sequence (O70174 31-629): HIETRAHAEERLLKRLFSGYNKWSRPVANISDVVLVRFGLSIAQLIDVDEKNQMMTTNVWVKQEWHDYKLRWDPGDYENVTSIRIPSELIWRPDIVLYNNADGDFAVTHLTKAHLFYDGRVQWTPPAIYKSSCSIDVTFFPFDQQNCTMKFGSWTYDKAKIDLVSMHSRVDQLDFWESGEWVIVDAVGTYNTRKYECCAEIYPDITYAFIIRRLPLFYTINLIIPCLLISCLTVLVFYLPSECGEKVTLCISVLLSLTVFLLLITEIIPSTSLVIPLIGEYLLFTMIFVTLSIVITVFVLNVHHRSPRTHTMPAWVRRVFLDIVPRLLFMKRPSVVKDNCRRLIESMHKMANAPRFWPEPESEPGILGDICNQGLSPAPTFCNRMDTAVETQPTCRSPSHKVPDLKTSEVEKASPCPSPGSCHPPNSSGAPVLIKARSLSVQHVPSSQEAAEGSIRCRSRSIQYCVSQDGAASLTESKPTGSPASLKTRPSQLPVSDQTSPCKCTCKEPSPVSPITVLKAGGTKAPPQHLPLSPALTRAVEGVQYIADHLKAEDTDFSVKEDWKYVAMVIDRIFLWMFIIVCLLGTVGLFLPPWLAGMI
T1 sequence (Q9ERK7 26-501): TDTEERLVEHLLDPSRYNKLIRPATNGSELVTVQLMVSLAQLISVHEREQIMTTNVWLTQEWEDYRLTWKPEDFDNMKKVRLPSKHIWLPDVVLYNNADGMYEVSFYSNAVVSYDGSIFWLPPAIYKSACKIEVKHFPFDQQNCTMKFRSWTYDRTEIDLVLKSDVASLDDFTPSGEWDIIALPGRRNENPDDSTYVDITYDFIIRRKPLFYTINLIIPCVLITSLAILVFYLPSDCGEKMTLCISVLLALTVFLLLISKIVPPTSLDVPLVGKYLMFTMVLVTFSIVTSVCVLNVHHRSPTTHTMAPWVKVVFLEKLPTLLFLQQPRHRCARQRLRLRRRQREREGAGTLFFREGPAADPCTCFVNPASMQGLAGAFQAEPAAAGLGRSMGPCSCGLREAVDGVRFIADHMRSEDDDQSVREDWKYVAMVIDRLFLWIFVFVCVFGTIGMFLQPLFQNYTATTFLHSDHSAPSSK
hα7-nAChR, sequence (P36544 23-502): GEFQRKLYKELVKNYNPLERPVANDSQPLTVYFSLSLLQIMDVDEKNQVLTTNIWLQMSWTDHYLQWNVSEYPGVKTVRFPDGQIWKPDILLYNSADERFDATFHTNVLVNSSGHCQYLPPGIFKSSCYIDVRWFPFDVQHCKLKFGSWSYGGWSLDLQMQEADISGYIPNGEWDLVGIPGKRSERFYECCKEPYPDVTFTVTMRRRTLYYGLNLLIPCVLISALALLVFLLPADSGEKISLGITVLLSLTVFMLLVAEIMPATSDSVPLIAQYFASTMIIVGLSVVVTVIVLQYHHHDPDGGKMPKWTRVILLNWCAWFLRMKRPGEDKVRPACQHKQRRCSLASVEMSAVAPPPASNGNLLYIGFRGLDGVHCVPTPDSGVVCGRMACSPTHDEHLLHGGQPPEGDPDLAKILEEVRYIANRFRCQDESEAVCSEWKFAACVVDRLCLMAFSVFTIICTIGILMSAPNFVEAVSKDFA
α7-nAChR, sequence (P49582 23-502): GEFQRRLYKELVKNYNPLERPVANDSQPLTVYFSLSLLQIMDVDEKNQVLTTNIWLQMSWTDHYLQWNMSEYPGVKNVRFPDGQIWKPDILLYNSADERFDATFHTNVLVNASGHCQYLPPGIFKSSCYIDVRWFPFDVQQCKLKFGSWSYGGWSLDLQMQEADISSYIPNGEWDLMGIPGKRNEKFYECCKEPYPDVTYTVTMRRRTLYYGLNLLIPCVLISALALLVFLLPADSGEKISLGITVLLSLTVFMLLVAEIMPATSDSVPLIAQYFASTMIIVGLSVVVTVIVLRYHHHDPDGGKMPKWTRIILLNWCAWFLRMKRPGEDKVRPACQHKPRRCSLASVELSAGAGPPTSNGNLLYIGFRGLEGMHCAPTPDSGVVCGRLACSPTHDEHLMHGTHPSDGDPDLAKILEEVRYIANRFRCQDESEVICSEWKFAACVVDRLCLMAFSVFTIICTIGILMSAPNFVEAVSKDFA
T2 sequence (Q9R0W9 31-494): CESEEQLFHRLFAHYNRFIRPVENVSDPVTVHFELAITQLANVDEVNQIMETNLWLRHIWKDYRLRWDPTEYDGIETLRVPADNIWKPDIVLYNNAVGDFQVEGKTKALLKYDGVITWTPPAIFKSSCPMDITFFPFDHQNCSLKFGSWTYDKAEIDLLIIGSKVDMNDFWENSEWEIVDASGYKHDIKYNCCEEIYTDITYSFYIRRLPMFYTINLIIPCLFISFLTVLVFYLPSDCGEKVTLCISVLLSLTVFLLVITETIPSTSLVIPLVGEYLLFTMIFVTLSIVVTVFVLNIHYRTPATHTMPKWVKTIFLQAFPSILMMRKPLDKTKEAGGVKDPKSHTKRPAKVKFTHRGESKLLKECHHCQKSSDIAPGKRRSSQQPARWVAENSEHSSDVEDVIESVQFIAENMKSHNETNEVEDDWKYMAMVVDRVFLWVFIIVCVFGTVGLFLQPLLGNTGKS
T2 sequence (Q9ERK7 26-501): as the sequence (Q9ERK7 26-501) above
T2 sequence (Q8BMN3 31-464 partner): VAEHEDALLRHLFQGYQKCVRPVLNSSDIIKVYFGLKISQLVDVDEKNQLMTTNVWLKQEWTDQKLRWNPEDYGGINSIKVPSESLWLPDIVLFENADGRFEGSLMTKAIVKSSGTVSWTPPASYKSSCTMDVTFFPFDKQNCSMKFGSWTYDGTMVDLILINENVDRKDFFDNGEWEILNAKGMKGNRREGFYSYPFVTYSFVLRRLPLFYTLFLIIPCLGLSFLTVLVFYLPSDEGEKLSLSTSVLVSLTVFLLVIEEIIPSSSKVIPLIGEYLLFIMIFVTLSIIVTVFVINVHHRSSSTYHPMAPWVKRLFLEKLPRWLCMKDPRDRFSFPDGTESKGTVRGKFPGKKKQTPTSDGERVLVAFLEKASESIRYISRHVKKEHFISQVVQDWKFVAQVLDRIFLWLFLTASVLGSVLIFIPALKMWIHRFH
α3β4*-nAChR, sequence (Q8R4G9 26-499): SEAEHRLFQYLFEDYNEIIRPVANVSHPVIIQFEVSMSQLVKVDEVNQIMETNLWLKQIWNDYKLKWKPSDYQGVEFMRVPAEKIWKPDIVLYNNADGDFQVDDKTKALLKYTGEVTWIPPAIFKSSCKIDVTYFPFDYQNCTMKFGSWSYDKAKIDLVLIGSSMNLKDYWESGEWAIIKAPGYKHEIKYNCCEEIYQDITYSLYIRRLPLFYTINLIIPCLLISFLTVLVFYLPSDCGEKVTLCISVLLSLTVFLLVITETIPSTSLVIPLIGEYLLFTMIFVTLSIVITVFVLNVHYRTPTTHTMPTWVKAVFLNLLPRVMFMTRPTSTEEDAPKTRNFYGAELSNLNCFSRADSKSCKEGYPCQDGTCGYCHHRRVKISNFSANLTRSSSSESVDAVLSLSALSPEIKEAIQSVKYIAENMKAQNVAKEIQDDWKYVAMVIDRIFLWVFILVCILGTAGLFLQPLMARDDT
α3β4*-nAChR, sequence (Q8R493 21-495): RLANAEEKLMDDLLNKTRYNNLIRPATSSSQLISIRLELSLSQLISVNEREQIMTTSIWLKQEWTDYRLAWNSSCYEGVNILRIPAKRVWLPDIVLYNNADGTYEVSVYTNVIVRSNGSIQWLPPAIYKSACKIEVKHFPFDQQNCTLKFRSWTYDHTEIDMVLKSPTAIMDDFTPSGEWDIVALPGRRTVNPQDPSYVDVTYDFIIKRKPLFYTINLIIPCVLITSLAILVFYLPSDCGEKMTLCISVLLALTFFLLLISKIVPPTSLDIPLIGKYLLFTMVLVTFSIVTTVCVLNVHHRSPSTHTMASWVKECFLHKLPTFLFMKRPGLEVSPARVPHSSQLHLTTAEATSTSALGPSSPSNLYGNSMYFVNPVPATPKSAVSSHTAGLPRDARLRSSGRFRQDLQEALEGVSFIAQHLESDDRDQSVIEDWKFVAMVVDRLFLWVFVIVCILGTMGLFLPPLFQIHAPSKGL

2-((5-chloropyridin-3-yloxy)methyl)quinuclidine [Compound 11]
Efficacy α3β4* (α3β4*-nAChR): 8% and 8 ± 2%
Functional character at α3β4* (α3β4*-nAChR): partial agonists
EC50 (α3β4*-nAChR; read-out: EC50 α3β4*, activation, [3H]ACh release): 7000 ± 1000 nM
Physiological effect α4L9'Aβ2* (α4L9'A knock-in mice [1]; mouse, in vivo): did not have intrinsic activity, nor did they block the effect of nicotine; also recorded: inconclusive
Efficacy α4β2* (first number, [3H]DA release) (α4β2*-nAChR [2]): -100 ± 9%
Reduction of antagonist potency at α4β2* relative to Compound 5 (α4β2*-nAChR [2]): 16 fold
Ki (α4β2*-nAChR [2]; [9]): 490 nM
Efficacy α6β2* (α6β2*-nAChR [3]): -100 ± 18%
Reduction of antagonist potency at α6β2* relative to Compound 5 (α6β2*-nAChR [3]): 2 fold
Ki (α6β2*-nAChR [3]; read-out: Ki α6β2* (marked #)): 910 ± 656 nM
Efficacy α7 (hα7-nAChR): 31% and 31 ± 12%
EC50 (hα7-nAChR; peak current, GH4C1 cells): 4260 ± 730 nM

c1cncc(C2CC3CCN2CC3)c1 (racemic) [Compound 1, (±)-2-(-3-pyridinyl)-1-azabicyclo[2.2.2]octane]
Increase in activity over saline in α6L9'S mice (α6L9'S transgenic mice [4]; 0.01 mg/kg i.p.): ~290%
Temperature drop in α4L9'A mice (α4L9'A knock-in mice [1]; 0.03 mg/kg i.p.): ~8 °
Physiological effect α4L9'Aβ2* (α4L9'A knock-in mice [1]; mouse, in vivo): hypothermia (0.03)
Physiological effect α6L9'Sβ2* (α6L9'S transgenic mice [5]): locomotor activation; also recorded: activation (0.01) ^2

c1cncc(C2C3CCN2CC3)c1 (centres unmarked) [Compound 2, 7-(pyridin-3-yl)-1-azabicyclo[2.2.1]heptane]
EC50 (α3β4*-nAChR): 4200 ± 500 nM
Functional character at α3β4* (α3β4*-nAChR): full or nearly full agonists
Physiological effect α6L9'Sβ2* (α6L9'S transgenic mice [4]): elicited responses; also recorded: locomotor activation; also recorded: activation (0.1)
Physiological effect α4L9'Aβ2* (α4L9'A knock-in mice [1]; [10]): elicited responses; also recorded: hypothermia (0.03)
EC50 (α4β2*-nAChR [2]; [11]): 1040 ± 280 nM
Ki (α7-nAChR): 32.9 ± 1.3 nM
EC50 (α6β2*-nAChR [3]; [12]): 50 ± 23 nM
Functional character at α6β2* (α6β2*-nAChR [3]; α-CtxMII-sensitive DA release): full agonist
Functional character at α7 (hα7-nAChR): full agonist
Emax (hα7-nAChR): 108%

c1cncc(C2CCC3CCN2CC3)c1 (centres unmarked) [Compound 3, 2-(pyridine-3-yl)-1-azabicyclo[3.2.2]nonane]
EC50 (α3β4*-nAChR; [13]): 2200 ± 300 nM
Functional character at α3β4* (α3β4*-nAChR): full or nearly full agonists
Physiological effect α4L9'Aβ2* (α4L9'A knock-in mice [1]; mouse, in vivo): blocked the effects of 0.1 mg/kg nicotine; also recorded: block (0.002)
Ki (α4β2*-nAChR [2]; [14]): 14 nM
Ki (α7-nAChR): 2.2 ± 0.5 nM
Ki (α6β2*-nAChR [3]): 52 ± 22 nM
Functional character at α7 (hα7-nAChR): full agonists
Emax (hα7-nAChR): 106%

c1cncc(C2C3CC4CC(C3)CN2C4)c1 (centres unmarked) [Compound 4, 1-aza-2-(3-pyridinyl)-tricyclo[3.3.1.13,7]decane]
EC50 (α3β4*-nAChR; EC50 α3β4* [3H]-ACh release): 8500 nM
EC50 (α3β4*-nAChR; [13]): 34000 ± 8000 nM
Functional character at α3β4* (α3β4*-nAChR): full or nearly full agonists
Physiological effect α4L9'Aβ2* (α4L9'A knock-in mice [1]; mouse, in vivo): blocked the effects of 0.1 mg/kg nicotine; also recorded: block (0.01)
Ki (α4β2*-nAChR [2]; [14]): 78 nM
Ki (α7-nAChR): 64.5 ± 5.5 nM
Ki (α6β2*-nAChR [3]): 570 ± 299 nM

c1cncc(CC2CC3CCN2CC3)c1 (centres unmarked) [Compound 5, 2-(pyridin-3-ylmethyl)quinuclidine]
Functional character at α3β4* (α3β4*-nAChR): full or nearly full agonists
Physiological effect α4L9'Aβ2* (α4L9'A knock-in mice [1]; mouse, in vivo): did not have intrinsic activity, nor did they block the effect of nicotine; also recorded: no effect

c1ccc(-c2cncc(C3CC4CCN3CC4)c2)cc1 [Compound 6, (4S)-2-(5-phenylpyridin-3-yl)quinuclidine]
Efficacy α3β4* (α3β4*-nAChR): -100 ± 7%
Functional character at α3β4* (α3β4*-nAChR): full antagonists
Ki (α3β4*-nAChR; read-out: Ki α3β4* (marked #)): 660 ± 170 nM
Efficacy α4β2* (first number, [3H]DA release) (α4β2*-nAChR [2]): -94 ± 2%
Ki (α4β2*-nAChR [2]; [9]): 230 nM
Decrease in α7 binding affinity relative to Compound 1 (α7-nAChR): approximately 50 fold
Efficacy α6β2* (α6β2*-nAChR [3]): -100 ± 19%
Ki (α6β2*-nAChR [3]; read-out: Ki α6β2* (marked #)): 1780 ± 1740 nM
Efficacy α7 (hα7-nAChR): 18 ± 6%
EC50 (hα7-nAChR; peak current, GH4C1 cells): 29000 ± 5400 nM

N#Cc1ccc(Oc2cncc(C3CC4CCN3CC4)c2)cc1 (centres unmarked) [Compound 7, 4-(5-(quinuclidin-2-yl)pyridin-3-yloxy)benzonitrile]
Ki (α3β4*-nAChR): 7000 ± 2000 nM
Functional character at α3β4* (α3β4*-nAChR): full or nearly full agonists
Physiological effect α6L9'Sβ2* (α6L9'S transgenic mice [4]): block (0.1)
Physiological effect α4L9'Aβ2* (α4L9'A knock-in mice [1]; mouse, in vivo): blocked the effects of 0.1 mg/kg nicotine; also recorded: block (0.01)
Ki (α4β2*-nAChR [2]; [14]): 66 nM
Ki (α7-nAChR): 23.4 ± 7.9 nM
Antagonist potency at α6β2* relative to Compound 6 (times more potent) (α6β2*-nAChR [3]): 40 times
Ki (α6β2*-nAChR [3]): 48 ± 3 nM

CNCC/C=C/c1cccnc1 [Compound 8, (E)-N-methyl-4-(3-pyridinyl)-3-butene-1-amine]
Functional character at α3β4* (α3β4*-nAChR): partial agonists
Physiological effect α4L9'Aβ2* (α4L9'A knock-in mice [1]; mouse, in vivo): elicited responses; also recorded: hypothermia (0.2)
EC50 (α4β2*-nAChR [2]): 14800 ± 10100 nM
Ki (α7-nAChR): 3070 ± 800 nM
Functional character at α6β2* (α6β2*-nAChR [3]; α-CtxMII-sensitive DA release): no measurable activity
Physiological effect α6L9'Sβ2* (α6L9'S transgenic mice [5]): elicited responses; also recorded: elicit a response; also recorded: activation (1.0) ^2
Emax (hα7-nAChR): 17 ± 7%

CNC(C)C/C=C/c1cncc(C#Cc2ccccc2)c1 (centres unmarked) [Compound 9, (E)-N-methyl-5-(5-(phenylethynyl)pyridin-3-yl)pent-4-en-2-amine]
Ki (α3β4*-nAChR): 14000 ± 300 nM
Functional character at α3β4* (α3β4*-nAChR): full antagonists
Physiological effect α4L9'Aβ2* (α4L9'A knock-in mice [1]; mouse, in vivo): did not have intrinsic activity, nor did they block the effect of nicotine; also recorded: no effect
Ki (α4β2*-nAChR [2]; [14]): 3900 nM
Ki (α7-nAChR): 30700 ± 4100 nM
Inhibition at α6β2* (partial antagonism) (α6β2*-nAChR [3]): ~50%
Ki (α6β2*-nAChR [3]): 4100 ± 83 nM
Efficacy α7 (hα7-nAChR): naa
EC50 α7 (hα7-nAChR; peak current, GH4C1 cells): naa

CN1[C@@H]2CC[C@H]1C=C(c1cncc(Br)c1)C2 [Compound 10, (1R,5S)-3-(5-bromopyridin-3-yl)-8-methyl-8-azabicyclo[3.2.1]oct-3-ene]
EC50 (α3β4*-nAChR; [13]): 7200 ± 600 nM
Functional character at α3β4* (α3β4*-nAChR): partial agonists
Physiological effect α6L9'Sβ2* (α6L9'S transgenic mice [4]): elicited responses; also recorded: locomotor activation; also recorded: activation (0.1)
Physiological effect α4L9'Aβ2* (α4L9'A knock-in mice [1]; mouse, in vivo): elicited responses; also recorded: hypothermia (0.1)
Efficacy as % of Compound 8, α-CtxMII-resistant DA release (α4β2*-nAChR [2]): 25%
Increase in potency relative to Compound 8, α-CtxMII-resistant DA release (α4β2*-nAChR [2]): 83 fold
EC50 (α4β2*-nAChR [2]; [11]): 178 ± 94 nM
EC50 (α4β2*-nAChR [2]; EC50 α-CtxMII-resistant (α4β2*) [3H]-DA release): 180 nM
Ki (α7-nAChR): 128 ± 36 nM
EC50 (α6β2*-nAChR [3]; [12]): 117 ± 69 nM
EC50 (α6β2*-nAChR [3]; EC50 α-CtxMII-sensitive (α6β2*) [3H]-DA release): 120 nM
Functional character at α6β2* (α6β2*-nAChR [3]; α-CtxMII-sensitive DA release): partial agonist
Emax (hα7-nAChR): 55 ± 9%

CN1CCC[C@H]1c1cccnc1 [Nicotine, (-)-nicotine tartrate]
Temperature decrease in α6L9'S mice (α6L9'S mice): < 1 °C
Temperature decrease in α4L9'A mice (α4L9'A knock-in mice [6]; 0.03 mg/kg): 3 °C
Physiological effect α4L9'Aβ2* (α4L9'A knock-in mice [6]): hypothermia (0.01) ^1
Physiological effect α4L9'Aβ2* (α4L9'A knock-in mice [6]; listed as nicotine): hypothermia
Locomotor activation, % of saline activity in α6L9'S mice (α6L9'S transgenic mice [5]; 0.15 mg/kg ip): ~350%
Physiological effect α6L9'Sβ2* (α6L9'S transgenic mice [5]): activation (0.1) ^2
Physiological effect α6L9'Sβ2* (α6L9'S transgenic mice [5]; listed as nicotine): locomotor hyperactivity

c1cnc2cc3c(cc2n1)[C@@H]1CNC[C@H]3C1 [Varenicline, reference compound]
EC50 (α3β4*-nAChR): 12000 ± 300 nM
Physiological effect α6L9'Sβ2* (α6L9'S transgenic mice [4]): activation (0.1)
Physiological effect α6L9'Sβ2* (α6L9'S transgenic mice [4]; listed as varenicline): locomotor hyperactivity
Physiological effect α4L9'Aβ2* (α4L9'A knock-in mice [1]; [10]): hypothermia (0.001)
EC50 (α4β2*-nAChR [2]): 50 ± 12 nM
Ki (α7-nAChR): 42 ± 5 nM
EC50 (α6β2*-nAChR [3]): 77 ± 169 nM
Emax (hα7-nAChR): 78 ± 24%

O=c1cccc2n1C[C@@H]1CNC[C@H]2C1 [cytisine]
Efficacy at α4β2*-nAChRs (α4β2*-nAChR [7]): 37%
Efficacy at α6β2* (α6β2*-nAChR [8]): 71%
